Key:
[1] = Ratio of total drug level in brain to blood in Han Wistar rat at 30 mg/kg, po measured at 1 hr by LC-MS/MS analysis; assay type: ADME, organism-based; parameters: dose 30 mg/kg, route oral; settings: read-out: BBR
[2] = Clearance in iv dosed Han Wistar rat; assay type: ADME, organism-based; settings: in vivo
[3] = Oral bioavailability in Han Wistar rat; assay type: ADME, organism-based; settings: in vivo
physchem = settings: buffer, pH 7.4
[4] = Apparent permeability from apical to basolateral side in MDCK cells; assay type: ADME, cell-based, Canis lupus familiaris; settings: dog
[5] = Oral bioavailability in Han Wistar rat at 7.4 umol/kg; assay type: ADME, organism-based; settings: in vivo
[6] = Clearance in C57B6 mouse at 3.5 umol/kg, iv; assay type: ADME, organism-based; settings: in vivo
[7] = Volume of distribution at steady state in Han Wistar rat at 5.2 umol/kg, iv; assay type: ADME, organism-based; settings: in vivo, read-out: Vdss
[8] = Clearance in Han Wistar rat at 5.2 umol/kg, iv; assay type: ADME, organism-based; settings: in vivo
[9] = Volume of distribution at steady state in C57B6 mouse at 3.5 umol/kg, iv; assay type: ADME, organism-based; settings: in vivo, read-out: Vdss
[10] = AUC in Han Wistar rat whole blood at 7.4 umol/kg, po
[11] = Ratio of free drug level in brain to blood in diet-induced obese C57B6 mouse model at 4 to 40 mg/kg/day administered through diet for 21 days measured on day 24; assay type: ADME, organism-based; settings: po
[12] = AUC in C57B6 mouse at 17.6 umol/kg, po; assay type: ADME, organism-based, Plasma; settings: whole blood
[13] = Ratio of free drug level in brain to blood in Han Wistar rat at 30 mg/kg, po measured at 1 hr by LC-MS/MS analysis; assay type: ADME, organism-based; parameters: dose 30 mg/kg, route oral
[14] = Oral bioavailability in C57B6 mouse at 17.6 umol/kg; assay type: ADME, organism-based; settings: in vivo
[15] = Volume of distribution at steady state in Han Wistar rat at 3.1 umol/kg, iv; assay type: ADME, organism-based; settings: in vivo, read-out: Vdss
[16] = Ratio of free drug level in brain to blood in diet-induced obese C57B6 mouse model at 20 mg/kg administered through diet for 21 days measured on day 24; assay type: ADME, organism-based; parameters: dose 20 mg/kg; settings: po
[17] = Volume of distribution at steady state in C57B6 mouse at 4 umol/kg, iv; assay type: ADME, organism-based; settings: in vivo, read-out: Vdss
[18] = Oral bioavailability in Han Wistar rat at 12.3 umol/kg; assay type: ADME, organism-based; settings: in vivo
[19] = Oral bioavailability in C57B6 mouse at 14.3 umol/kg; assay type: ADME, organism-based; settings: in vivo
[20] = AUC in Han Wistar rat at 12.3 umol/kg, po; assay type: ADME, organism-based, Plasma; settings: whole blood
[21] = Clearance in C57B6 mouse at 4 umol/kg, iv; assay type: ADME, organism-based; settings: in vivo
[22] = AUC in C57B6 mouse at 14.3 umol/kg, po; assay type: ADME, organism-based, Plasma; settings: whole blood
[23] = Clearance in Han Wistar rat at 3.1 umol/kg, iv; assay type: ADME, organism-based; settings: in vivo

Structure (SMILES) | Kp at 1 h [1] | bioavailability [3] | logD (physchem) | other results
COC[C@H](C)Oc1nc([C@H]2CCCO2)c(C(=O)NC2C3CC4CC2CC(O)(C4)C3)s1 (stereo partly specified) | 0.9 | 16% | 2.8 | clearance [2]: 13 mL/min/kg
CN(C)c1nc([C@H]2CCCO2)c(C(=O)N[C@H]2C3CC4CC2C[C@](O)(C4)C3)s1 | – | – | 2.7 | –
C[C@@H]1CN(c2ncc(C(=O)NC3C4CC5CC3CC(O)(C5)C4)c(C3CCCC3)n2)C[C@H](C)O1 (stereo partly specified) | – | 70% | 3.6 | Papp A→B [4]: 20 ×10⁻⁶ cm/s
C[C@@H]1CN(c2ncc(C(=O)NC3C4CC5CC3CC(O)(C5)C4)c([C@H]3CCCO3)n2)C[C@H](C)O1 (stereo partly specified) | 0.3 | 35% | 2.3 | Papp A→B [4]: 23 ×10⁻⁶ cm/s
CS(=O)(=O)Cc1nc([C@H]2CCCO2)c(C(=O)NC2C3CC4CC2CC(O)(C4)C3)s1 (stereo partly specified) | < 0.05 | 65% | 0.4 | clearance [2]: 17 mL/min/kg
COCCc1nc([C@H]2CCCO2)c(C(=O)N[C@H]2C3CC4CC2C[C@](O)(C4)C3)s1 | – | – | 1.8 | –
O=C(N[C@H]1C2CC3CC1C[C@](O)(C3)C2)c1sc(OCC2CC2)nc1C1CC1 | – | – | 3.6 | –
O=C(N[C@H]1C2CC3CC1C[C@](O)(C3)C2)c1cncs1 | – | – | 0.8 | –
COC[C@@H](C)Oc1nc(C2CC2)c(C(=O)N[C@H]2C3CC4CC2C[C@](O)(C4)C3)s1 | – | – | 2.6 | –
O=C(N[C@H]1C2CC3CC1C[C@](O)(C3)C2)c1sc(OCCO)nc1C1CC1 | 0.2 | 25% | 1.6 | clearance [2]: 5 mL/min/kg
N#CC1CC(Oc2nc([C@H]3CCCO3)c(C(=O)NC3C4CC5CC3CC(O)(C5)C4)s2)C1 (stereo partly specified) | – | – | 2.4 | –
CNc1nc([C@H]2CCCO2)c(C(=O)N[C@H]2C3CC4CC2C[C@](O)(C4)C3)s1 | – | – | 2.1 | –
O=C(NC1C2CC3CC1CC(O)(C3)C2)c1scnc1[C@H]1CCCO1 (stereo partly specified) | – | 0% | 1.6 | clearance [2]: 52 mL/min/kg
COCCOc1nc(C2CC2)c(C(=O)N[C@H]2C3CC4CC2C[C@](O)(C4)C3)s1 | 1.2 | 23% | – | clearance [2]: 27 mL/min/kg
O=C(N[C@H]1C2CC3CC1C[C@](O)(C3)C2)c1sc(O[C@@H]2CCCO2)nc1C1CC1 | – | – | 2.4 | –
CCc1nc([C@H]2CCCO2)c(C(=O)N[C@H]2C3CC4CC2C[C@](O)(C4)C3)s1 | – | – | 2.4 | –
O=C(N[C@H]1C2CC3CC1C[C@](O)(C3)C2)c1sc(OC2CCOCC2)nc1[C@H]1CCCO1 | 1.1 | – | 2.6 | bioavailability [5]: 83%; clearance [6]: 26 mL/min/kg; Vd [7]: 1 L/kg; clearance [8]: 34 mL/min/kg; Vd [9]: 1.7 L/kg; AUC [10]: 3.9 µM·h; Kp uu at 504 h [11]: 0.5; AUC [12]: 20.6 µM·h; Kp uu at 1 h [13]: 0.9; bioavailability [14]: 139%
Nc1nc([C@H]2CCCO2)c(C(=O)N[C@H]2C3CC4CC2C[C@](O)(C4)C3)s1 | – | – | 1.7 | –
O=C(NC1C2CC3CC1CC(O)(C3)C2)c1cnc(N[C@H]2CCOC2)nc1C1CCCC1 (stereo partly specified) | – | 64% | – | Papp A→B [4]: 3 ×10⁻⁶ cm/s
COCCOc1nc([C@H]2CCCO2)c(C(=O)NC2C3CC4CC2CC(O)(C4)C3)s1 (stereo partly specified) | 0.8 | 24% | 2.1 | clearance [2]: 8 mL/min/kg
N#CC1(COc2nc(C3CC3)c(C(=O)N[C@H]3C4CC5CC3C[C@](O)(C5)C4)s2)CC1 | 0.4 | – | 2.6 | Vd [15]: 0.6 L/kg; Kp uu at 504 h [16]: 0.2; Vd [17]: 1 L/kg; bioavailability [18]: 79%; bioavailability [19]: 73%; AUC [20]: 7.9 µM·h; clearance [21]: 18 mL/min/kg; Kp uu at 1 h [13]: 0.4; AUC [22]: 12 µM·h; clearance [23]: 16 mL/min/kg
COCc1nc([C@H]2CCCO2)c(C(=O)N[C@H]2C3CC4CC2C[C@](O)(C4)C3)s1 | – | – | 1.9 | –
O=C(N[C@H]1C2CC3CC1C[C@](O)(C3)C2)c1sc(OC2CCOCC2)nc1C1CC1 | 1.2 | 53% | 2.7 | clearance [2]: 21 mL/min/kg

Now from value to compound, other results behind:

Kp at 1 h [1] | bioavailability [3] | logD (physchem) | Structure (SMILES) | other results
1.6 | 12% | 1.9 | Cc1nc(C2CC2)c(C(=O)N[C@H]2C3CC4CC2C[C@](O)(C4)C3)s1 | clearance [2]: 14 mL/min/kg
– | – | 3.1 | Cc1nc(OCC(F)(F)F)c(C(=O)N[C@H]2C3CC4CC2C[C@](O)(C4)C3)s1 | –
– | – | 2.6 | CCOc1nc(C)sc1C(=O)N[C@H]1C2CC3CC1C[C@](O)(C3)C2 | –
1.2 | 23% | 2 | COc1nc(C)sc1C(=O)N[C@H]1C2CC3CC1C[C@](O)(C3)C2 | clearance [2]: 22 mL/min/kg
– | – | 1.5 | Cc1nc(C(F)(F)F)c(C(=O)N[C@H]2C3CC4CC2C[C@](O)(C4)C3)s1 | –
– | – | 3.4 | CC(C)Oc1nc(C2CC2)c(C(=O)N[C@H]2C3CC4CC2C[C@](O)(C4)C3)s1 | –
1.1 | 40% | 2.3 | COc1nc([C@H]2CCCO2)c(C(=O)N[C@H]2C3CC4CC2C[C@](O)(C4)C3)s1 | clearance [2]: 21 mL/min/kg
– | – | 1.7 | COc1ncsc1C(=O)NC1C2CC3CC1CC(O)(C3)C2 (stereo unspecified) | –
1.5 | 11% | 1.8 | Cc1nc([C@H]2CCCO2)c(C(=O)N[C@H]2C3CC4CC2C[C@](O)(C4)C3)s1 | clearance [2]: 17 mL/min/kg
– | – | 1.8 | Cc1nc([C@@H]2CCCO2)c(C(=O)N[C@H]2C3CC4CC2C[C@](O)(C4)C3)s1 | –
1.8 | 45% | 2.6 | COc1nc(C2CC2)c(C(=O)N[C@H]2C3CC4CC2C[C@](O)(C4)C3)s1 | clearance [2]: 15 mL/min/kg
– | – | 3.1 | CCCSc1nc(C)sc1C(=O)N[C@H]1C2CC3CC1C[C@](O)(C3)C2 | –
– | – | 3.2 | Cc1nc(OC2CCC2)c(C(=O)NC2C3CC4CC2CC(O)(C4)C3)s1 (stereo unspecified) | –
– | – | 1.3 | Cc1nc(C)c(C(=O)N[C@H]2C3CC4CC2C[C@](O)(C4)C3)s1 | –
– | – | 2.9 | CCOc1nc(C2CC2)c(C(=O)N[C@H]2C3CC4CC2C[C@](O)(C4)C3)s1 | –
0.1 | 27% | 0.4 | COc1c(C(=O)NC2C3CC4CC2CC(O)(C4)C3)cnn1C (stereo unspecified) | –
– | – | 2.8 | COC[C@H](C)Oc1nc(C2CC2)c(C(=O)N[C@H]2C3CC4CC2C[C@](O)(C4)C3)s1 | –
– | – | 1.5 | Cc1nc(OC2COC2)c(C(=O)N[C@H]2C3CC4CC2C[C@](O)(C4)C3)s1 | –
– | – | 3 | Cc1nc(OC(C)C)c(C(=O)N[C@H]2C3CC4CC2C[C@](O)(C4)C3)s1 | –
